Assay results taken from patent publication US10294247B2, “Beta-lactamase inhibitors” (VenatoRx Pharmaceuticals, Inc., priority 2014, dated 2019).

Legend:
Assay type in all cases: cell-based
[1] = tested on: K. pneumoniae expressing the class A carbapenemase KPC-2 and the class B carbapenemase VIM-4; experiment: broth microdilution MIC assay, K. pneumoniae KPC-2 and VIM-4; details: Klebsiella pneumoniae; partner antibiotic alone, no inhibitor; K. pneumoniae expressing KPC-2 and VIM-4; CAMHB
Description: (§1) To determine the ability of test compounds to potentiate the inhibition of the growth of bacterial strains that produce beta-lactamase enzymes, classic cell based broth microdilution MIC assays are employed. Six bacteria strains producing beta-lactamase enzymes are used: E. coli expressing the Class A Extended Spectrum Beta-Lactamase (ESBL) CTX-M-15, E. cloacae expressing the Class C P99, K. pneumoniae expressing the Class A carbapenemase KPC-3, P. aeruginosa expressing the Class B carbapenemase VIM-2, K. pneumoniae expressing the class A carbapenemase KPC-2 and the class B carbapenemase VIM-4, and S. aureus producing the Class A penicillinase PC-1. The assay is conducted in Cation Adjusted Mueller Hinton Broth (CAMHB, BD #212322, BD Diagnostic Systems, Sparks, Md.). Bacteria strains are grown for 3-5 hours in CAMBH broth. Test compounds are added to a microtiter plate in 2-fold serial dilutions in CAMHB in a final concentration range of 32 μg/mL to 0.25 μg/ml. An overlay of CAMHB containing a Beta-lactam is added to the compounds at a final static concentration of 4 μg/mL. […] After inoculation the plates are incubated for 16-20 hours at 37° C. then the Minimal Inhibitory Concentration (MIC) of the test compound is determined visually.

[2] = tested on: K. pneumoniae expressing the Class A carbapenemase KPC-3; experiment: broth microdilution MIC assay, K. pneumoniae KPC-3; details: Klebsiella pneumoniae, read-out: MIC alone
Description: as §1

[3] = tested on: P. aeruginosa expressing the Class B carbapenemase VIM-2; experiment: broth microdilution MIC assay, P. aeruginosa VIM-2; details: Pseudomonas aeruginosa, read-out: MIC alone
Description: as §1

[4] = tested on: S. aureus producing the Class A penicillinase PC-1; experiment: broth microdilution MIC assay, S. aureus PC-1; details: Staphylococcus aureus; partner antibiotic alone, no inhibitor; S. aureus producing Class A penicillinase PC-1; CAMHB
Description: as §1

[5] = tested on: E. coli expressing the Class A Extended Spectrum Beta-Lactamase (ESBL) CTX-M-15; experiment: broth microdilution MIC assay, E. coli CTX-M-15; details: Escherichia coli, read-out: MIC alone
Description: as §1

[6] = tested on: E. cloacae expressing the Class C P99; experiment: broth microdilution MIC assay, E. cloacae P99; details: Enterobacter cloacae, read-out: MIC alone
Description: as §1

**Q.** With `C[C@@H](O)[C@H]1C(=O)N2C(C(=O)O)=C(S[C@@H]3CN[C@H](C(=O)N(C)C)C3)[C@H](C)[C@H]12` [Meropenem] as the compound, how does the MIC [1] read?
**A.** 64 µg/mL

**Q.** And the MIC [2]?
**A.** > 128 µg/mL

**Q.** And the MIC [3]?
**A.** 16 µg/mL

**Q.** With `CCN1CCN(C(=O)N[C@@H](C(=O)N[C@@H]2C(=O)N3[C@@H]2SC(C)(C)[C@@H]3C(=O)O)c2ccccc2)C(=O)C1=O` [Piperacillin] as the compound, how does the MIC [4] read?
**A.** 64 µg/mL

**Q.** What does the source list for `CC(C)(O/N=C(\C(=O)N[C@@H]1C(=O)N2C(C(=O)[O-])=C(C[n+]3ccccc3)CS[C@H]12)c1csc(N)n1)C(=O)O` [Ceftazidime]?
**A.** MIC [5]: > 128 µg/mL; MIC [6]: 128 µg/mL
